Calls of active or inactive are those of the source. The calls are words filed in the database; no cut-off is given here.
biological target: T1, Ubiquitin carboxyl-terminal hydrolase 1/WD repeat-containing protein 48 (Homo sapiens) (UniProt O94782+Q8TAF3); details: NCI-H1299, dose 20-500 nM, time 24.0 hrs

| inhibition | SMILES |
| --- | --- |
| Dose-Dependent Effect | COc1ncnc(C2CC2)c1-c1ncc2ccc(=O)n(Cc3ccc(-n4nc(C(F)(F)F)cc4C)cc3)c2n1 |
| Dose-Dependent Effect | COc1cccc(OC)c1-c1ncc2ccc(=O)n(Cc3ccc(-c4nc(C(F)(F)F)cn4C(C)C)cc3)c2n1 |

test system: Olaparib-resistant MDA-MB-436; test: Inhibition of colony formation in human Olaparib-resistant MDA-MB-436 cell assessed as cell killing at 100 nM measured after 7 days by SRB staining based assay; format: functional; details: time 7.0 day

| SMILES | inhibition |
| --- | --- |
| O=C(c1cc(Cc2n[nH]c(=O)c3ccccc23)ccc1F)N1CCN(C(=O)C2CC2)CC1 | inactive |

test system: MDA-MB-436; test: Induction of cell cycle arrest in human MDA-MB-436 cells assessed as increase in cells at S phase at 1 uM incubated for 24 hrs by PI staining based flow cytometry analysis; format: functional; details: not given

| SMILES | Activity |
| --- | --- |
| COc1ncnc(C2CC2)c1-c1ncc2ccc(=O)n(Cc3ccc(-n4nc(C(F)(F)F)cc4C)cc3)c2n1 | Active |
| COc1ncnc(C2CC2)c1-c1ncc2cnn(Cc3ccc(-c4nc(C(F)(F)F)cn4C(C)C)cc3)c2n1 | Active |
| COc1cccc(OC)c1-c1ncc2ccc(=O)n(Cc3ccc(-c4nc(C(F)(F)F)cn4C(C)C)cc3)c2n1 | Active |

biological target: T1, Ubiquitin carboxyl-terminal hydrolase 1/WD repeat-containing protein 48 (Homo sapiens); test: Inhibition of USP1-UAF1 complex (unknown origin) using Ub-7-amido-4-methylcoumarin as substrate at 10 uM incubated for 2 hrs by fluorescence based analysis relative to control; format: protein-complex assay; details: not given

| SMILES | inhibition [%] |
| --- | --- |
| COc1ncnc(C2CC2)c1-c1ncc2ccc(=O)n(Cc3ccc(-c4nc(C(F)(F)F)cn4C(C)C)c(C)c3)c2n1 | 77.9 |
| COc1ncccc1-c1ncc2ccc(=O)n(Cc3ccc(-c4nc(C(F)(F)F)cn4C(C)C)cc3)c2n1 | 63.9 |
| COc1ncnc(C2CC2)c1-c1ncc2ccc(=O)n(Cc3ccc(-n4cccc4)cc3)c2n1 | 71.6 |

Now from value to compound:

| inhibition [%] | SMILES |
| --- | --- |
| 56.6 | CC(C)n1cc(C(F)(F)F)nc1-c1ccc(Cn2c(=O)ccc3cnc(-c4ccnn4C(C)C)nc32)cc1 |
| 56.9 | COc1ncnc(C2CC2)c1-c1ncc2ccc(=O)n(Cc3ccc(-n4ccnc4)cc3)c2n1 |
| 54.6 | COc1ncnc(C2CC2)c1-c1ncc2ccc(=O)n(Cc3ccc(-n4ccnn4)cc3)c2n1 |

test system: NCI-H1299; test: Inhibition of colony formation in human NCI-H1299 cells at 0.5 uM measured after 7 days by SRB staining based assay relative to control; format: functional; details: NCI-H1299, 168 h, time 7 day

| SMILES | inhibition at 0.5 µM [%] |
| --- | --- |
| COc1ncnc(C2CC2)c1-c1ncc2ccc(=O)n(Cc3ccc(-n4nc(C(F)(F)F)cc4C)cc3)c2n1 | 70 |
| COc1cccc(OC)c1-c1ncc2ccc(=O)n(Cc3ccc(-c4nc(C(F)(F)F)cn4C(C)C)cc3)c2n1 | 70 |

biological target: Ubiquitin carboxyl-terminal hydrolase 1/WD repeat-containing protein 48 (Homo sapiens, UniProt O94782); test: Inhibition of USP1-UAF1 complex (unknown origin) using Ub-7-amido-4-methylcoumarin as substrate incubated for 2 hrs by fluorescence based analysis; format: protein-complex assay; details: not given
Sequence (O94782 whole entry): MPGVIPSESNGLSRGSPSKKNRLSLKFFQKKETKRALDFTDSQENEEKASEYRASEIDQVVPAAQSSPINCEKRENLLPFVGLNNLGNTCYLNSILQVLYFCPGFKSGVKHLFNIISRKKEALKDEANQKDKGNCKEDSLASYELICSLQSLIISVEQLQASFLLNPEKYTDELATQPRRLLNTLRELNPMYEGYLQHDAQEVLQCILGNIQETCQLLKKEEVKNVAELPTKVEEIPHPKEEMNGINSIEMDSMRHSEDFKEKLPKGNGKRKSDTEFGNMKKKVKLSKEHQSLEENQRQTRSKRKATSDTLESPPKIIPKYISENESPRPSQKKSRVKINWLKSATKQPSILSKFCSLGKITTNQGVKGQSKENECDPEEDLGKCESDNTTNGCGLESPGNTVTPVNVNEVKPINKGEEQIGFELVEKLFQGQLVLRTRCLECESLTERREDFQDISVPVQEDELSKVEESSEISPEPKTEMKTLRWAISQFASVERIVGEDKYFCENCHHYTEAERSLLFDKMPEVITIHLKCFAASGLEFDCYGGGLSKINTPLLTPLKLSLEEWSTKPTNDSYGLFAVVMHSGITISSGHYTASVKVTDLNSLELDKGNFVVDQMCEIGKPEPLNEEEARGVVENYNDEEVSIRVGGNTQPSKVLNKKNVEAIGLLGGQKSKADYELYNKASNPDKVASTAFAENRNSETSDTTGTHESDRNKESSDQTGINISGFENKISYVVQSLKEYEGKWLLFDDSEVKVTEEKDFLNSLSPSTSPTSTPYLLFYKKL
Sequence (Q8TAF3 whole entry, further chain): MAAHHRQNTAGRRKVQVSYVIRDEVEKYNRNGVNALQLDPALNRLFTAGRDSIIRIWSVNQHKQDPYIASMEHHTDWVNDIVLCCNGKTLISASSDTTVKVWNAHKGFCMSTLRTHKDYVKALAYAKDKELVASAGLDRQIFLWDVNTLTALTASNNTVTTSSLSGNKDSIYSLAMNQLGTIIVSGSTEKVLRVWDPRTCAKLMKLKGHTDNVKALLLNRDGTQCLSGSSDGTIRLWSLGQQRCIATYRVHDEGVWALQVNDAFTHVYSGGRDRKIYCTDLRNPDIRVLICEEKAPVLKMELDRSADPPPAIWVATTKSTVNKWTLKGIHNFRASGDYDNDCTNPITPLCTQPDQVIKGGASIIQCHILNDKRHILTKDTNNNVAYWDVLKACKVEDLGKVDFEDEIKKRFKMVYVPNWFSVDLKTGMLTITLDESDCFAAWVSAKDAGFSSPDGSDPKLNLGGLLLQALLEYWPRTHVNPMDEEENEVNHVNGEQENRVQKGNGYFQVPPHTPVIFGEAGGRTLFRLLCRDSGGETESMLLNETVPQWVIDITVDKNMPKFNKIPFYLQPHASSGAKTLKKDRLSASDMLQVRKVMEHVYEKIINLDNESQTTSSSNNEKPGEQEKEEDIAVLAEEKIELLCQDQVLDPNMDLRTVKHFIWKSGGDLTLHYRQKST

| SMILES | IC50 [nM] |
| --- | --- |
| COc1cc(-c2nc(C(F)(F)F)cn2C(C)C)ccc1Cn1c(=O)ccc2cnc(-c3c(OC)ncnc3C3CC3)nc21 | 319 |
| COc1ccccc1-c1ncc2ccc(=O)n(Cc3ccc(-c4nc(C(F)(F)F)cn4C(C)C)cc3)c2n1 | > 10000 |
| COc1cccc(OC)c1-c1ncc2ccc(=O)n(Cc3ccc(-c4nc(C(F)(F)F)cn4C(C)C)cc3)c2n1 | 18.8 |
| CC(C)n1cc(C(F)(F)F)nc1-c1ccc(Cn2c(=O)ccc3cnc(-c4ccccc4OC(F)(F)F)nc32)cc1 | 39.8 |
| CC(C)n1cc(C(F)(F)F)nc1-c1ccc(Cn2c(=O)ccc3cnc(-c4ccccc4F)nc32)cc1 | 835 |
| CC(C)n1cc(C(F)(F)F)nc1-c1ccc(Cn2c(=O)ccc3cnc(-c4ccn(C)n4)nc32)cc1 | > 10000 |
| CC(C)n1cc(C(F)(F)F)nc1-c1ccc(Cn2c(=O)ccc3cnc(-c4cccc5cnn(C)c45)nc32)cc1 | > 10000 |
| COc1ncnc(C2CC2)c1-c1ncc2ccc(=O)n(Cc3ccc(-c4nc(C(F)(F)F)cn4CC4CC4)cc3)c2n1 | 11.2 |
| COc1ncnc(C2CC2)c1-c1ncc2ccc(=O)n(Cc3c(F)cc(-c4nc(C(F)(F)F)cn4C(C)C)cc3F)c2n1 | 246 |
| CC(C)n1cc(C(F)(F)F)nc1-c1ccc(Cn2c(=O)ccc3cnc(-c4c(Cl)cccc4Cl)nc32)cc1 | > 10000 |
| CC(C)n1cc(C(F)(F)F)nc1-c1ccc(Cn2c(=O)ccc3cnc(-c4c(F)cccc4Cl)nc32)cc1 | > 10000 |
| COc1ncnc(C2CC2)c1-c1ncc2ccc(=O)n(Cc3ccc(-c4cccc(C(F)(F)F)n4)cc3)c2n1 | 59.9 |

The next lines start with the values.

| IC50 [nM] | SMILES |
| --- | --- |
| 22.8 | COc1ncnc(C2CC2)c1-c1ncc2ccc(=O)n(Cc3ccc(-c4nc(C(F)(F)F)cn4C(C)C)c(F)c3)c2n1 |
| 729 | CC(C)n1cc(C(F)(F)F)nc1-c1ccc(Cn2c(=O)ccc3cnc(-c4ccccc4Cl)nc32)cc1 |
| 23.3 | COc1cccc(F)c1-c1ncc2ccc(=O)n(Cc3ccc(-c4nc(C(F)(F)F)cn4C(C)C)cc3)c2n1 |
| 511 | Cc1ccccc1-c1ncc2ccc(=O)n(Cc3ccc(-c4nc(C(F)(F)F)cn4C(C)C)cc3)c2n1 |
| > 10000 | COc1ncnc(C2CC2)c1-c1ncc2ccc(=O)n(Cc3ccc(-c4ccc(C(F)(F)F)cn4)cc3)c2n1 |
| 195 | CC(C)n1cc(C(F)(F)F)nc1-c1ccc(Cn2c(=O)ccc3cnc(-c4ccccc4C(F)(F)F)nc32)cc1 |
| 83.9 | COc1ncnc(C2CC2)c1-c1ncc2ccc(=O)n(C(C)c3ccc(-c4nc(C(F)(F)F)cn4C(C)C)cc3)c2n1 (centres undefined) |
| > 10000 | CC(C)n1cc(C(F)(F)F)nc1-c1ccc(Cn2c(=O)ccc3cnc(-c4cccc5ncsc45)nc32)cc1 |
| 33.9 | CC(C)c1ccccc1-c1ncc2ccc(=O)n(Cc3ccc(-c4nc(C(F)(F)F)cn4C(C)C)cc3)c2n1 |
| > 10000 | Cc1cnn(C)c1-c1ncc2ccc(=O)n(Cc3ccc(-c4nc(C(F)(F)F)cn4C(C)C)cc3)c2n1 |
| > 10000 | Cc1cnn(C(C)C)c1-c1ncc2ccc(=O)n(Cc3ccc(-c4nc(C(F)(F)F)cn4C(C)C)cc3)c2n1 |
| > 10000 | CC(C)n1cc(C(F)(F)F)nc1-c1ccc(Cn2c(=O)ccc3cnc(-c4c(Cl)cnn4C(C)C)nc32)cc1 |
| > 10000 | CC(C)n1cc(C(F)(F)F)nc1-c1ccc(Cn2c(=O)ccc3cnc(-c4ccnn4C)nc32)cc1 |

— ChEMBL document CHEMBL5579832, “Design, synthesis, and biological evaluation of pyrido[2,3-d]pyrimidin-7(8H)-one derivatives as potent USP1 inhibitors” (Eur J Med Chem, 2024)
